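Five concentrations, 48 hours, 96-well plates. GI50 is the concentration that inhibits growth by half. The concentration for full growth arrest is given as TGI.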
Tests used:
Assay in all cases: DTP human tumour cell line panel, 48 h
[1] = test system: NCI-H226 lung
[2] = test system: NCI-H23 lung
[3] = test system: NCI-H460 lung
[4] = test system: NCI-H522 lung
[5] = test system: NCI/ADR-RES ovarian
[6] = test system: OVCAR-3 ovarian
[7] = test system: OVCAR-4 ovarian
[8] = test system: OVCAR-5 ovarian
[9] = test system: OVCAR-8 ovarian
[10] = test system: PC-3 prostate
[11] = test system: RPMI-8226 leukemia
[12] = test system: RXF 393 renal
[13] = test system: SF-268 CNS
[14] = test system: SF-295 CNS
[15] = test system: SF-539 CNS
[16] = test system: SK-MEL-2 melanoma
[17] = test system: SK-MEL-28 melanoma
[18] = test system: SK-MEL-5 melanoma
[19] = test system: SK-OV-3 ovarian
[20] = test system: SN12C renal
[21] = test system: SNB-19 CNS
[22] = test system: SNB-75 CNS
[23] = test system: SR leukemia
[24] = test system: SW-620 colon
[25] = test system: T-47D breast
[26] = test system: TK-10 renal
[27] = test system: U251 CNS
[28] = test system: UACC-257 melanoma
[29] = test system: UACC-62 melanoma
[30] = test system: UO-31 renal

COc1cnc2c(c1)C(=O)c1c-2n(CCCNCCO)c(=O)c2cc(OC)c(OC)cc12
TGI [1]: 9.83 µM
GI50 [2]: 395 nM
TGI [2]: 2340 nM
GI50 [3]: 423 nM
TGI [3]: 8.75 µM
GI50 [4]: 459 nM
TGI [4]: 3.33 µM
GI50 [5]: 16.4 µM
TGI [5]: > 100 µM
GI50 [6]: 4.52 µM
TGI [6]: 16.9 µM
GI50 [7]: 8.24 µM
TGI [7]: 27.6 µM
GI50 [8]: 4.91 µM
TGI [8]: 18.4 µM
GI50 [9]: 3000 nM
TGI [9]: 16 µM
GI50 [10]: 2770 nM
TGI [10]: 22.2 µM
GI50 [11]: 1730 nM
TGI [11]: 10.5 µM
GI50 [12]: 1520 nM
TGI [12]: 5.81 µM
GI50 [13]: 920 nM
TGI [13]: 20.9 µM
GI50 [14]: 418 nM
TGI [14]: 12.3 µM
GI50 [15]: 492 nM
TGI [15]: 2400 nM
GI50 [16]: 17.1 µM
TGI [16]: 37.9 µM
GI50 [17]: 13.2 µM
TGI [17]: 26.2 µM
GI50 [18]: 720 nM
TGI [18]: 3.16 µM
GI50 [19]: 1620 nM
TGI [19]: 5.98 µM
GI50 [20]: 3.28 µM
TGI [20]: 16 µM
GI50 [21]: 1470 nM
TGI [21]: 15.3 µM
GI50 [22]: 352 nM
TGI [22]: 10.3 µM
GI50 [23]: 393 nM
TGI [23]: 21.5 µM
GI50 [24]: 1370 nM
TGI [24]: 18.2 µM
GI50 [25]: 746 nM
TGI [25]: 12.3 µM
GI50 [26]: 15.5 µM
TGI [26]: 30.1 µM
GI50 [27]: 495 nM
TGI [27]: 10.8 µM
GI50 [28]: 13.6 µM
TGI [28]: > 100 µM
GI50 [29]: 1170 nM
TGI [29]: 10.4 µM
GI50 [30]: 5.96 µM
TGI [30]: 19.5 µM

Source: PubChem BioAssay (NCI)
